Assay results published in publication PMC8838408, “Antileishmanial Effects of Acetylene Acetogenins from Seeds of Porcelia macrocarpa (Warm.) R.E. Fries (Annonaceae) and Semisynthetic Derivatives” (Molecules, 2022).
“Also recorded” adds a separate entry of the source. Where two headings read alike, the source gives them in different places.

What was measured:
[1] = Cytotoxicity against mammalian cells (MTT assay); format: cell-based; details: mouse, NCTC clone 929 cells, highest concentration 200 μM
Description: (§1) Macrophages were collected from the peritoneal cavity of female BALB/c mice by washing with RPMI-1640 without phenol red, supplemented with 10% FBS at 37 °C in a humidified atmosphere containing 5% CO2. NCTC (clone 929) cells were maintained in RPMI-1640 (without phenol red and supplemented with 10% FBS) at 37 °C in the same conditions of the peritoneal macrophages.
The 50% cytotoxic concentration (CC50) was determined in NCTC clone 929 cells. NCTC cells were seeded at 6 × 10^4 cells/well in 96-well microplates and incubated with serial dilutions of the tested compounds or standard drug (miltefosine) to the highest concentration of 200 μM for 48 h at 37 °C in a 5% CO2-humidified incubator. An MTT assay determined the viability of the cells at 570 nm. The selectivity index (SI) was determined considering the following equation: CC50 NCTC cells/IC50 parasites.
(§2) The data obtained represent the mean and standard deviation of duplicate samples from at least three independent assays. IC50 and CC50 values were calculated using sigmoid dose–response curves in Graph Pad Prism 5.0 software (GraphPad Software, San Diego, CA, USA).

[2] = test system: intracellular amastigote forms of Leishmania (L.) infantum; test: Activity against L. (L.) infantum intracellular amastigotes in infected peritoneal macrophages; format: cell-based; details: for IC50 L. (L.) infantum / IC50: 96 h; for SI (selectivity index): CC50 NCTC cells/IC50 parasites; for IC50: read-out: IC50 L. (L.) infantum
Description: L. (L.) infantum (MHOM/BR/1972/LD) was maintained through successive passages in golden hamsters up to 60–70 days post-infection. Amastigotes were harvested from spleens of infected hamsters by differential centrifugation.
as §1
The 50% inhibitory concentrations (IC50) against intracellular amastigotes for tested compounds were determined in infected macrophages. Peritoneal macrophages were obtained as described in the Section 3.6.3, and L. (L.) infantum amastigotes were obtained from spleens of infected hamsters by differential centrifugation. Peritoneal macrophages were seeded at 1 × 10^5 cells per well in Nunc™ 16-well slide chambers (Aldrich, St. Louis, MO, USA) for 24 h at 37 °C in a 5% CO2-humidified incubator. Next, amastigotes were isolated from a spleen of an infected hamster as described, counted, seeded at a 1:10 macrophages/amastigotes ratio, and incubated for 24 h. Non-internalized parasites were removed by washing twice with a culture medium. Then, the macrophages were incubated with compounds or standard drug (miltefosine) in a range of 100 to 0.78 μM for 96 h at 37 °C in a 5% CO2-humidified incubator, using miltefosine as a standard drug. At the end of the assay, the cells were fixed in methanol, stained with Giemsa, and observed under a digital light microscope (EVOS M5000, Thermo, Waltham, MA, USA) to determine the number of infected macrophages out of 400 cells.
as §2

[3] = intracellular amastigotes in BALB/c peritoneal macrophages, 100 to 0.78 μM, NA: non-active
[4] = Peritoneal macrophage, intracellular amastigotes in BALB/c peritoneal macrophages, 100 to 0.78 μM, NA: non-active

Row | Structure (SMILES) | CC50 at 48 h [1] [µM] | IC50 L. (L.) infantum [2, 3] | SI (selectivity index) [2] | IC50 [2, 4] [µM] | IC50 ([2]; Peritoneal macrophage) [µM] | IC50 [2, 3] [µM]
1 | CCCCCCCCC#CCCCCCCCCCCC1=C[C@@H](C)OC1=O [Compound 2b, 4R-Methyl-2-(n-eicos-11′-ynil)but-2-enolide] | > 200 | no activity |  |  |  | 
2 | CCCCCCCCCCCCCCCCCCCCC1C(=O)OC(C)C1OC(C)=O [Compound 3a, (2S,3R,4R)-3-Acetoxy-4-methyl-2-(n-eicosanil)butanolide] | > 200 | lack of activity; also recorded: no activity |  |  |  | 
3 | C=CCCCCCCC#CCCCCCCCCCC[C@@H]1C(=O)O[C@H](C)[C@@H]1O [Compound 1, (2S,3R,4R)-3-hydroxy-4-methyl-2-(n-eicos-11′-yn-19′-enyl)butanolide] | > 200 |  | >6.7 | 29.9 ± 9.7 |  | 
4 | CCCCCCCCCCCCCCCCCCCCC1C(=O)OC(C)C1O [Compound 3, (2S,3R,4R)-3-Hydroxy-4-methyl-2-(n-eicosanil)butanolide] | > 200 | lack of activity; also recorded: no activity |  | > 100 |  | 
5 | C=CCCCCCCC#CCCCCCCCCCCC1=C[C@@H](C)OC1=O [Compound 1b, 4R-Methyl-2-(n-eicos-11′-yn-19′-enil)but-2-enolide] | > 200 |  | >8.6 |  | 23.1 ± 5.4 | 
6 | CCCCCCCCC#CCCCCCCCCCC[C@@H]1C(=O)O[C@H](C)[C@@H]1OC(C)=O [Compound 2a, (2S,3R,4R)-3-Acetoxy-4-methyl-2-(n-eicos-11′-ynil)butanolide] | > 200 | no activity |  |  |  | 
7 | CCCCCCCCCCCCCCCCOP(=O)([O-])OCC[N+](C)(C)C [Miltefosine, reference compound] | 116 ± 5.3 |  | 6.5 | 17.8 ± 1.4 |  | 
8 | C=CCCCCCCC#CCCCCCCCCCC[C@@H]1C(=O)O[C@H](C)[C@@H]1OC(C)=O [Compound 1a, (2S,3R,4R)-3-Acetoxy-4-methyl-2-(n-eicos-11′-yn-19′-enil)butanolide] | > 200 |  | >4.6 | 43.3 |  | 43.4 ± 3.9
9 | CCCCCCCCC#CCCCCCCCCCC[C@@H]1C(=O)O[C@H](C)[C@@H]1O [Compound 2, (2S,3R,4R)-3-hydroxy-4-methyl-2-(n-eicos-11′-ynyl)butanolide] | > 200 | inactive |  | > 100 |  | 
10 | CCCCCCCCCCCCCCCCCCCCC1=C[C@@H](C)OC1=O [Compound 3b, 4R-Methyl-2-(n-eicosanil)but-2-enolide] | > 200 | lack of activity; also recorded: no activity |  |  |  | 
